Source: patent US9987266B2, “Alkyl-amide-substituted pyridyl compounds useful as modulators of IL-12, IL-23 and/or IFNα responses” (BRISTOL-MYERS SQUIBB COMPANY, priority 2013, dated 2018)
Like-named read-outs stand apart in the source and are kept apart here.

Experiments:
[1] = target: T1, recombinantly expressed His-tagged protein corresponding to amino acids 575-869 of human Tyk2 (Homo sapiens, UniProt P29597); assay: Probe displacement assay (scintillation proximity, radiolabeled probe); type: binding; details: 2.5 nM Tyk2 (575-869), 40 nM [3H] probe, 30 minutes at room temperature
T1 construct: made in house
Description: The preparation of radiolabeled probe, (R)—N-(1-(3-(8-methyl-5-(methylamino)-8H-imidazo[4,5-d]thiazolo[5,4-b]pyridin-2-yl)phenyl)ethyl)-2-([^3H]methylsulfonyl)benzamide, was performed as described below: […]

[2] = test system: Kit225 T cells with STAT-dependent luciferase reporter stimulated with human recombinant IL-23; assay: Kit225 T cell assay, IL-23 stimulated STAT-dependent luciferase reporter; type: cell-based
Description: (§1) Kit225 T cells with a stably-integrated STAT-dependent luciferase reporter were plated in RPMI (Gibco) containing 10% heat-inactivated FBS (Gibco) and 100 U/mL PenStrep (Gibco). The cells were then stimulated with either 20 ng/mL human recombinant IL-23 or 200 U/mL human recombinant IFNα (PBL InterferonSource) for 5-6 hours. Luciferase expression was measured using the STEADY-GLO® Luciferase Assay System (Promega) according to the manufacturer's instructions.

[3] = test system: Kit225 T cells with STAT-dependent luciferase reporter stimulated with human recombinant IFNα; assay: Kit225 T cell assay, IFNα stimulated STAT-dependent luciferase reporter; type: cell-based
Description: as §1

[4] = KIT225, 20 ng/mL human recombinant IL-23, 5-6 hours, luciferase, read-out: IL-23 Kit225 Reporter, LE (IC50)
[5] = KIT225, 200 U/mL human recombinant IFNα, 5-6 hours, luciferase, read-out: IFNa Kit225 Reporter, LE (IC50)
[6] = Homo sapiens, KIT225, read-out: IL-23 Kit225 Reporter, LE (IC50, μM)
[7] = Homo sapiens, KIT225, read-out: IFNa Kit225 Reporter, LE (IC50, μM)

T1 sequence (P29597 with tags, fused parts or gaps): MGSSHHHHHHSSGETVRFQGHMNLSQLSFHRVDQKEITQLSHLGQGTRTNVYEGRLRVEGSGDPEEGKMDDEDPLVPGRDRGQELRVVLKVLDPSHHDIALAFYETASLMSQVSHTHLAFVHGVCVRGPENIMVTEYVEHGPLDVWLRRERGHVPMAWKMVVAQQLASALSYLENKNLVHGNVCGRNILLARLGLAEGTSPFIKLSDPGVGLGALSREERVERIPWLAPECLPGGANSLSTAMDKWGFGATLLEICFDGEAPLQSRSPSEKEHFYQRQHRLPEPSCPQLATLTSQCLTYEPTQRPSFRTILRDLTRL

SMILES	EC50 [1] [nM]	IC50 [2, 4] [µM]	IC50 [3, 5] [µM]	IC50 [2, 6] [µM]	IC50 [3, 7] [µM]
CNC(=O)c1cnc(NC(=O)C2CC2)cc1Nc1ccccc1S(C)(=O)=O [Example 1]	20	0.3	0.24		
CNC(=O)c1cnc(NC(C)=O)cc1Nc1ccccc1S(C)(=O)=O [Example 2]	430	7.06	12.5		
CNC(=O)c1cnc(NC(=O)[C@@H]2CCCO2)cc1Nc1ccccc1S(C)(=O)=O [Example 3]	830	6.52	12.5		
CNC(=O)c1cnc(NC(=O)C2CCOCC2)cc1Nc1ccccc1S(C)(=O)=O [Example 4]	760	2.09	12.5		
CNC(=O)c1cnc(NC(=O)C2CCCCC2)cc1Nc1ccccc1S(C)(=O)=O [Example 5]	800	1.88	8.93		
CNC(=O)c1cnc(NC(=O)Cc2ccccc2)cc1Nc1ccccc1S(C)(=O)=O [Example 6]	120	1.16	1.11		
CNC(=O)c1cnc(NC(=O)C(C)C)cc1Nc1ccccc1S(C)(=O)=O [Example 7]	460	0.4	4.21		
CNC(=O)c1cnc(NC(=O)[C@H]2CC2(C)C)cc1Nc1ccccc1S(C)(=O)=O [Example 8]	250	4.68	1		
CNC(=O)c1cnc(NC(=O)C2CCCc3ccccc32)cc1Nc1ccccc1S(C)(=O)=O (stereo not shown) [Example 9]	940			13.3	2.56
CNC(=O)c1cnc(NC(=O)Cc2ccccn2)cc1Nc1ccccc1S(C)(=O)=O [Example 10]	380	4.55	6.03		
CCCC(=O)Nc1cc(Nc2ccccc2S(C)(=O)=O)c(C(=O)NC)cn1 [Example 11]	240	2.95	2.49		
CNC(=O)c1cnc(NC(=O)Cc2ccc(OC)cc2)cc1Nc1ccccc1S(C)(=O)=O [Example 12]	230	4.42	0.58		
CNC(=O)c1cnc(NC(=O)C2CCC2)cc1Nc1ccccc1S(C)(=O)=O [Example 14]	170	3.15	0.87		
CNC(=O)c1cnc(NC(=O)C2CC2)cc1Nc1ccc(F)cc1S(C)(=O)=O [Example 15]	50	0.69	0.34		
CCNC(=O)Nc1cc(Nc2ccccc2S(C)(=O)=O)c(C(=O)NC)cn1 [Example 16]	90	12.5	3.37		
CNC(=O)Nc1cc(Nc2ccccc2S(C)(=O)=O)c(C(=O)NC)cn1 [Example 17]	200	11.4	9.54		
CNC(=O)c1cnc(NC(=O)Nc2ccccc2)cc1Nc1ccccc1S(C)(=O)=O [Example 27]	290			3.17	3.06
[2H]C([2H])([2H])NC(=O)c1cnc(NC(=O)C2CC2)cc1Nc1cccc(-c2ccn(CC(F)(F)F)n2)c1OC [Example 39]	20			0.08	0.16
[2H]C([2H])([2H])NC(=O)c1cnc(NC(=O)C2CC2)cc1Nc1cccc(-c2ccn(CCC#N)n2)c1OC [Example 41]	2.74			0.19	0.09

Now from value to molecule, other results behind:

EC50 [1] [nM]	IC50 [2, 4] [µM]	IC50 [3, 5] [µM]	SMILES	IC50 [2, 6] [µM]	IC50 [3, 7] [µM]
540	6.61	9.91	CNC(=O)c1cnc(NC(=O)C2CC2)cc1Nc1cccc(F)c1S(C)(=O)=O [Example 18]		
720	5.69	8.51	CNC(=O)c1cnc(NC(=O)C2CC2)cc1Nc1ccccc1C(C)(C)O [Example 19]		
150	1.44	1.2	CNC(=O)c1cnc(NC(=O)C2CC2)cc1Nc1cc(F)ccc1S(C)(=O)=O [Example 20]		
140	2.26	1.85	CNC(=O)c1cnc(NC(=O)C2CC2(F)F)cc1Nc1ccccc1S(C)(=O)=O (stereo not shown) [Example 21]		
80	2.12	1.24	CNC(=O)c1cnc(NC(=O)C2CC2F)cc1Nc1ccccc1S(C)(=O)=O (stereo not shown) [Example 22]		
1020	12.5	3.89	CNC(=O)c1cnc(NC(=O)COC)cc1Nc1ccc(F)c(F)c1OC [Example 23]		
420	11.2	7.24	CNC(=O)c1cnc(NC(C)=O)cc1Nc1ccc(F)c(F)c1OC [Example 24]		
40	0.23	0.1	CNC(=O)c1cnc(NC(=O)C2CC2)cc1Nc1ccc(F)c(F)c1OC [Example 25]		
10	0.07	0.04	CNC(=O)c1cnc(NC(=O)C2CC2)cc1Nc1cccc(-c2nnc(C)o2)c1OC [Example 28]		
5.46	0.02	0.03	CNC(=O)c1cnc(NC(=O)C2CC2)cc1Nc1cccc(-c2nnc[nH]2)c1OC [Example 29]		
6.17	0.03	0.01	CNC(=O)c1cnc(NC(=O)C2CC2)cc1Nc1cccc(-c2ncn(C)n2)c1OC [Example 30]		
3.81	0.00478	0.01	[2H]C([2H])([2H])NC(=O)c1cnc(NC(=O)C2CC2)cc1Nc1cccc(-c2ncn(C)n2)c1OC [Example 31]		
1.63	0.00731	0.00705	CNC(=O)c1cnc(NC(=O)C2CC2)cc1Nc1cccc(-c2ccn(C)n2)c1OC [Example 32]		
5.34	0.11	0.09	CNC(=O)c1cnc(NC(=O)C2CC2)cc1Nc1cccc(-c2ccnn2C)c1OC [Example 33]		
6.42	0.02	0.00873	[2H]C([2H])([2H])NC(=O)c1cnc(NC(=O)C2CC2)cc1Nc1cccc(-c2ccn(C)n2)c1OC [Example 34]		
40	0.06	0.28	[2H]C([2H])([2H])NC(=O)c1cnc(NC(=O)C2CC2)cc1Nc1cccc(-c2ccnn2C)c1OC [Example 35]		
4.2	0.1	0.04	[2H]C([2H])([2H])NC(=O)c1cnc(NC(=O)C2CC2)cc1Nc1cccc(-c2ccn(CC(F)F)n2)c1OC [Example 36]		
3.52	0.12	0.07	[2H]C([2H])([2H])NC(=O)c1cnc(NC(=O)C2CC2)cc1Nc1cccc(-c2ccn(CC)n2)c1OC [Example 37]		
160	1.52	1.66	[2H]C([2H])([2H])NC(=O)c1cnc(NC(=O)C2CC2)cc1Nc1cccc(-c2ccnn2CC)c1OC [Example 38]		
3.86	0.17	0.16	[2H]C([2H])([2H])NC(=O)c1cnc(NC(=O)C2CC2)cc1Nc1cccc(-c2ccn(CC(C)(C)O)n2)c1OC [Example 40]		
7.19	0.05	0.02	CNC(=O)c1cnc(NC(=O)C2CC2)cc1Nc1cccc(-c2cnn(C)c2)c1OC [Example 42]		
2.54	0.06	0.02	[2H]C([2H])([2H])NC(=O)c1cnc(NC(=O)C2CC2)cc1Nc1cccc(-c2cnn(C)c2)c1OC [Example 43]		
	0.00229	0.00117	[2H]C([2H])([2H])NC(=O)c1cnc(NC(=O)C2CC2)cc1Nc1cccc(-c2nnn(C)n2)c1OC [Example 44]		
5.56	0.01	0.01	[2H]C([2H])([2H])NC(=O)c1cnc(NC(=O)C2CC2)cc1Nc1cccc(-c2csc(C)n2)c1OC [Example 45]		
	0.022	0.013	[2H]C([2H])([2H])NC(=O)c1cnc(NC(=O)C2CC2)cc1Nc1cccc(-c2ncc(F)cn2)c1OC [Example 46]		
